In patent publication US20020115642A1, “Beta-lactam antibiotics” (priority 2000, published 2002):
Converted amounts (≈) assume the structure as drawn. Like-named read-outs stand apart in the source and are kept apart here.

How the values were obtained:
Assay in all cases: Susceptibility testing (MIC, modified NCCLS method)
E. aerogenes = type: cell-based, Enterobacter aerogenes; details: E. aerogenes ATCC 35028
Experimental: (§1) The NCCLS (National Committee for Clinical Laboratory Standards) method to determine MIC's of antimicrobial compounds was modified for high-throughput screening. All stocks of tested compounds were prepared in either water or in dimethylsulfoxide (DMSO), depending on the solubility. […] Briefly 20 2-fold serial dilutions of testing compounds from the highest concentration were made in a 384-well microtiter plate. Each well was inoculated with testing bacteria in broth to a final concentration of approximately 1-1.5×10^6 cells/ml. Bacterial growth was determined by the increase of optical density at 600 nm using a microplate reader (Tecan SpectraFluor Plus).

P. aeruginosa = type: cell-based, Pseudomonas aeruginosa
Experimental: as §1

E. coli N = type: cell-based, Escherichia coli; details: E. coli (N)
Experimental: as §1

E. coli/TEM-1 = type: cell-based, Escherichia coli
Experimental: as §1

Staphylococcus aureus = type: cell-based
Experimental: as §1

K. pneumoniae = type: cell-based, Klebsiella pneumoniae
Experimental: as §1

E. faecalis = type: cell-based, Enterococcus faecalis
Experimental: as §1

E. cloacae = type: cell-based, Enterobacter cloacae; details: E. cloacae ATCC 23355
Experimental: as §1

S. epidermidis = type: cell-based, Staphylococcus epidermidis; details: Staphylococcus epidermidis, S. epidermidis (5); read-out: GM* MIC (geometric mean)
Experimental: as §1

O=C(Cc1cnc[nH]1)NC1C(=O)N2C(C(=O)O)=C(COc3cc(Cl)ccc3Oc3ccc(Cl)cc3Cl)CS[C@H]12 (some centres unmarked) [Compound 31, 3-(2-(2,4-Dichlorophenoxy)-5-chlorophenoxy)methyl-7-[2-(3H-imidazol-4-yl)]-acetamido-3-cephem-4-carboxylic acid]
MIC (E. aerogenes): 16 µg/mL (≈ 26.2 µM) | MIC (P. aeruginosa; P. aeruginosa ATCC 21726): >32 µg/mL | MIC (P. aeruginosa; P. aeruginosa ATCC 29872): >32 µg/mL | MIC (E. coli N): 0.25 µg/mL (≈ 0.41 µM) | MIC (E. coli/TEM-1; E. coli/Tem-1): 0.063 µg/mL (≈ 0.103 µM) | MIC (Staphylococcus aureus; S. aureus ATCC 11632): 16 µg/mL (≈ 26.2 µM) | MIC (Staphylococcus aureus; S. aureus ATCC 33591): 16 µg/mL (≈ 26.2 µM) | MIC (Staphylococcus aureus; S. aureus ATCC 33594): 0.063 µg/mL (≈ 0.103 µM) | MIC (Staphylococcus aureus; S. aureus ATCC 700260): 32 µg/mL (≈ 52.5 µM) | MIC (Staphylococcus aureus; S. aureus ATCC 700699): 32 µg/mL (≈ 52.5 µM) | MIC (K. pneumoniae; K. pneumoniae ATCC 51503): 32 µg/mL (≈ 52.5 µM) | MIC (K. pneumoniae; K. pneumoniae ATCC 700721): 0.5 µg/mL (≈ 0.82 µM) | MIC (E. faecalis; E. faecalis ATCC 49757): 32 µg/mL (≈ 52.5 µM) | MIC (E. faecalis; E. faecalis ATCC 700802): >32 µg/mL | MIC (E. cloacae): 16 µg/mL (≈ 26.2 µM)

NC(C(=O)NC1C(=O)N2C(C(=O)O)=C(COc3cc(Cl)ccc3Oc3ccc(Cl)cc3Cl)CSC12)c1ccccc1 (centres unmarked) [Compound 38, 3-(2-(2,4-Dichlorophenoxy)-5-chlorophenoxy)methyl-7-(1-phenyl-2-aminoacetamido)-3-cephem-4-carboxylic acid]
MIC (E. aerogenes): 1.98 µg/mL (≈ 3.12 µM) | MIC (P. aeruginosa; P. aeruginosa ATCC 21726): >15.9 µg/mL | MIC (P. aeruginosa; P. aeruginosa ATCC 29872): >15.9 µg/mL | MIC (E. coli N): 0.031 µg/mL (≈ 0.0488 µM) | MIC (E. coli/TEM-1; E. coli/Tem-1): 0.015 µg/mL (≈ 0.0236 µM) | MIC (Staphylococcus aureus; S. aureus ATCC 11632): 0.062 µg/mL (≈ 0.0976 µM) | MIC (Staphylococcus aureus; S. aureus ATCC 33594): 0.062 µg/mL (≈ 0.0976 µM) | MIC (Staphylococcus aureus; S. aureus ATCC 700260): 1.5e-05 µg/mL (≈ 2.36e-05 µM) | MIC (Staphylococcus aureus; S. aureus ATCC 700699): 1.5e-05 µg/mL (≈ 2.36e-05 µM) | MIC (K. pneumoniae; K. pneumoniae ATCC 51503): 1.98 µg/mL (≈ 3.12 µM) | MIC (E. faecalis; E. faecalis ATCC 49757): 15.9 µg/mL (≈ 25 µM) | MIC (E. faecalis; E. faecalis ATCC 700802): 15.9 µg/mL (≈ 25 µM) | MIC (E. cloacae): 1.98 µg/mL (≈ 3.12 µM)

O=C(COc1ccc(O)cc1)NC1C(=O)N2C(C(=O)O)=C(COc3cc(Cl)ccc3Oc3ccc(Cl)cc3Cl)CS[C@H]12 (some centres unmarked) [Compound 40, 3-(2-(2,4-dichlorophenoxy)-5-chlorophenoxy)methyl-7-[2-(4-hydroxyphenoxy)acetamido]-3-cephem-4-carboxylic acid]
MIC (E. aerogenes; Klebsiella aerogenes, ATCC35028, read-out: MIC): 32 µg/mL (≈ 49.1 µM) | MIC (P. aeruginosa; Pseudomonas aeruginosa, ATCC21726, P. aeruginosa ATCC 21726, read-out: MIC): > 32 µg/mL | MIC (P. aeruginosa; Pseudomonas aeruginosa, ATCC29872, P. aeruginosa ATCC 29872, read-out: MIC): > 32 µg/mL | MIC (E. coli N; Escherichia coli, read-out: MIC): 0.5 µg/mL (≈ 0.767 µM) | MIC (E. coli/TEM-1; Escherichia coli): 0.063 µg/mL (≈ 0.0966 µM) | MIC (Staphylococcus aureus; Staphylococcus aureus, ATCC11632, S. aureus ATCC 11632, read-out: MIC): 16 µg/mL (≈ 24.5 µM) | MIC (Staphylococcus aureus; Staphylococcus aureus, ATCC33591, S. aureus ATCC 33591, read-out: MIC): 0.125 µg/mL (≈ 0.192 µM) | MIC (Staphylococcus aureus; Staphylococcus aureus, ATCC33594, S. aureus ATCC 33594, read-out: MIC): 0.063 µg/mL (≈ 0.0966 µM) | MIC (Staphylococcus aureus; Staphylococcus aureus, ATCC700260, S. aureus ATCC 700260, read-out: MIC): 4 µg/mL (≈ 6.14 µM) | MIC (Staphylococcus aureus; Staphylococcus aureus, ATCC700699, S. aureus ATCC 700699, read-out: MIC): 32 µg/mL (≈ 49.1 µM) | MIC (K. pneumoniae; Klebsiella pneumoniae, ATCC51503, K. pneumoniae ATCC 51503, read-out: MIC): 16 µg/mL (≈ 24.5 µM) | MIC (K. pneumoniae; Klebsiella pneumoniae, ATCC700721, K. pneumoniae ATCC 700721, read-out: MIC): 2 µg/mL (≈ 3.07 µM) | MIC (E. faecalis; Enterococcus faecalis, ATCC49757, E. faecalis ATCC 49757, read-out: MIC): 16 µg/mL (≈ 24.5 µM) | MIC (E. faecalis; Enterococcus faecalis, ATCC700802, E. faecalis ATCC 700802, read-out: MIC): 16 µg/mL (≈ 24.5 µM) | MIC (E. cloacae; Enterobacter cloacae, ATCC23355, read-out: MIC): 16 µg/mL (≈ 24.5 µM)

O=C(Cn1cnnn1)Nc1ncc(CC(=O)NC2C(=O)N3C(C(=O)O)=C(COc4cc(Cl)ccc4Oc4ccc(Cl)cc4Cl)CS[C@H]23)s1 (some centres unmarked) [Compound 43]
MIC (E. aerogenes): 32 µg/mL (≈ 42.6 µM) | MIC (P. aeruginosa; P. aeruginosa ATCC 21726): >32 µg/mL | MIC (P. aeruginosa; P. aeruginosa ATCC 29872): >32 µg/mL | MIC (E. coli N): 2 µg/mL (≈ 2.66 µM) | MIC (E. coli/TEM-1; E. coli/Tem-1): 0.25 µg/mL (≈ 0.332 µM) | MIC (Staphylococcus aureus; S. aureus ATCC 11632): 32 µg/mL (≈ 42.6 µM) | MIC (Staphylococcus aureus; S. aureus ATCC 33591): 0.125 µg/mL (≈ 0.166 µM) | MIC (Staphylococcus aureus; S. aureus ATCC 33594): 0.063 µg/mL (≈ 0.0838 µM) | MIC (Staphylococcus aureus; S. aureus ATCC 700260): 8 µg/mL (≈ 10.6 µM) | MIC (Staphylococcus aureus; S. aureus ATCC 700699): 32 µg/mL (≈ 42.6 µM) | MIC (K. pneumoniae; K. pneumoniae ATCC 51503): 32 µg/mL (≈ 42.6 µM) | MIC (K. pneumoniae; K. pneumoniae ATCC 700721): 4 µg/mL (≈ 5.32 µM) | MIC (E. faecalis; E. faecalis ATCC 49757): 32 µg/mL (≈ 42.6 µM) | MIC (E. faecalis; E. faecalis ATCC 700802): 32 µg/mL (≈ 42.6 µM) | MIC (E. cloacae): 32 µg/mL (≈ 42.6 µM)

Cc1nnc(SCC(=O)Nc2ncc(CC(=O)NC3C(=O)N4C(C(=O)O)=C(COc5cc(Cl)ccc5Oc5ccc(Cl)cc5Cl)CSC34)s2)s1 (centres unmarked) [Compound 47]
MIC (E. aerogenes): >32 µg/mL | MIC (P. aeruginosa; P. aeruginosa ATCC 21726): >32 µg/mL | MIC (P. aeruginosa; P. aeruginosa ATCC 29872): >32 µg/mL | MIC (E. coli N): 2 µg/mL (≈ 2.46 µM) | MIC (E. coli/TEM-1; E. coli/Tem-1): 0.25 µg/mL (≈ 0.307 µM) | MIC (Staphylococcus aureus; S. aureus ATCC 11632): >32 µg/mL | MIC (Staphylococcus aureus; S. aureus ATCC 33591): 0.125 µg/mL (≈ 0.154 µM) | MIC (Staphylococcus aureus; S. aureus ATCC 33594): 0.063 µg/mL (≈ 0.0774 µM) | MIC (Staphylococcus aureus; S. aureus ATCC 700260): 8 µg/mL (≈ 9.83 µM) | MIC (Staphylococcus aureus; S. aureus ATCC 700699): >32 µg/mL | MIC (K. pneumoniae; K. pneumoniae ATCC 51503): >32 µg/mL | MIC (K. pneumoniae; K. pneumoniae ATCC 700721): 8 µg/mL (≈ 9.83 µM) | MIC (E. faecalis; E. faecalis ATCC 49757): >32 µg/mL | MIC (E. faecalis; E. faecalis ATCC 700802): >32 µg/mL | MIC (E. cloacae): >32 µg/mL

Cc1onc(-c2ccccc2)c1C(=O)N[C@@H]1C(=O)N2[C@@H]1SC(C)(C)[C@@H]2C(=O)O [Oxacillin, reference compound]
MIC (S. epidermidis): > 7.87 µg/mL | MIC (Staphylococcus aureus; Staphylococcus aureus, ATCC11632, ATCC 11632, methicillin-sensitive, β-lactamase Neg./Pos., read-out: MIC): 0.25 µg/mL (≈ 0.623 µM) | MIC (Staphylococcus aureus; Staphylococcus aureus, ATCC13301, ATCC 13301, methicillin-sensitive, β-lactamase Positive, read-out: MIC): 0.25 µg/mL (≈ 0.623 µM) | MIC (Staphylococcus aureus; Staphylococcus aureus, ATCC14154, ATCC 14154, methicillin-sensitive, β-lactamase Positive, read-out: MIC): 0.5 µg/mL (≈ 1.25 µM) | MIC (Staphylococcus aureus; Staphylococcus aureus, ATCC33591, ATCC 33591, methicillin-resistant, β-lactamase Positive, read-out: MIC): 8 µg/mL (≈ 19.9 µM) | MIC (Staphylococcus aureus; Staphylococcus aureus, ATCC33592, ATCC 33592, methicillin-sensitive, β-lactamase Positive, read-out: MIC): 2 µg/mL (≈ 4.98 µM) | MIC (Staphylococcus aureus; Staphylococcus aureus, ATCC33593, ATCC 33593, methicillin-resistant, β-lactamase Positive, read-out: MIC): 8 µg/mL (≈ 19.9 µM) | MIC (Staphylococcus aureus; Staphylococcus aureus, ATCC33594, ATCC 33594, methicillin-sensitive, β-lactamase Positive, read-out: MIC): 0.25 µg/mL (≈ 0.623 µM) | MIC (Staphylococcus aureus; Staphylococcus aureus, ATCC43300, ATCC 43300, methicillin-sensitive, β-lactamase Neg./Pos., read-out: MIC): 2 µg/mL (≈ 4.98 µM) | MIC (Staphylococcus aureus; Staphylococcus aureus, ATCC700260, ATCC 700260, methicillin-sensitive, β-lactamase Positive, read-out: MIC): 0.5 µg/mL (≈ 1.25 µM) | MIC (Staphylococcus aureus; Staphylococcus aureus, ATCC700698, ATCC 700698, methicillin-resistant, β-lactamase Negative, read-out: MIC): > 32 µg/mL | MIC (Staphylococcus aureus; Staphylococcus aureus, ATCC700699, ATCC 700699, methicillin-resistant, β-lactamase Negative, read-out: MIC): > 32 µg/mL | MIC (Staphylococcus aureus; Staphylococcus aureus, ATCC700787, ATCC 700787, methicillin-resistant, β-lactamase Positive, read-out: MIC): > 32 µg/mL | MIC (Staphylococcus aureus; Staphylococcus aureus, ATCC700788, ATCC 700788, methicillin-resistant, β-lactamase Positive, read-out: MIC): > 32 µg/mL | MIC (Staphylococcus aureus; Staphylococcus aureus, ATCC700789, ATCC 700789, methicillin-resistant, β-lactamase Positive, read-out: MIC): 32 µg/mL (≈ 79.7 µM) | MIC (Staphylococcus aureus; Staphylococcus aureus, MRSA, MRSA tested (7), read-out: Geometric mean of MIC): > 21.5 µg/mL | MIC (Staphylococcus aureus; Staphylococcus aureus, MSSA, MSSA tested (7), read-out: Geometric mean of MIC): 0.55 µg/mL (≈ 1.37 µM) | MIC (Staphylococcus aureus; Staphylococcus aureus, S. aureus (14), read-out: Geometric mean of MIC): > 3.45 µg/mL | MIC (Staphylococcus aureus; Staphylococcus aureus, S. aureus β-lactamase negative (2), read-out: Geometric mean of MIC): > 32 µg/mL | MIC (Staphylococcus aureus; Staphylococcus aureus, S. aureus β-lactamase positive (12), read-out: Geometric mean of MIC): 2.34 µg/mL (≈ 5.83 µM) | MIC range (E. faecalis; E. faecalis (7)): >11 µg/mL | MIC (E. faecalis; Enterococcus faecalis, E. faecalis (7), read-out: GM* MIC (geometric mean)): > 11 µg/mL
